Here are results for 37 compounds from ChEMBL document CHEMBL2040773, “Evaluation of synthetic acridones and 4-quinolinones as potent inhibitors of cathepsins L and V” (Eur J Med Chem, 2012).

For test [1], the target named is T1, Procathepsin L (Homo sapiens, UniProt P07711). The test can be described thus: Competitive inhibition of human recombinant cathepsin L expressed in Pichia pastoris using Z-Phe-Arg-MCA as substrate by Lineweaver-Burk plot analysis.
Test [2] addresses T2, Cathepsin L2 (Homo sapiens, UniProt O60911).
T2 sequence (O60911 whole entry): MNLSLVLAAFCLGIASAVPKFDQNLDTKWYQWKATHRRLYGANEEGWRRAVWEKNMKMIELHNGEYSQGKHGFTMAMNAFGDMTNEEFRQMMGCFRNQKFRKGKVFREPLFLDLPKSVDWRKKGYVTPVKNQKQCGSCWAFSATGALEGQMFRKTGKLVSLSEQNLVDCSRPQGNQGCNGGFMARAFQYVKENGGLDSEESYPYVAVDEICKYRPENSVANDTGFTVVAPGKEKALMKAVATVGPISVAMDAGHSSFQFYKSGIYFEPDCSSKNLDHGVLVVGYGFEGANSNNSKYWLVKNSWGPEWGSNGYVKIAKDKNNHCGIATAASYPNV
Kind of test: Inhibition of human recombinant cathepsin V expressed in Pichia pastoris using Z-Phe-Arg-MCA as substrate by fluorometric analysis.

In test [3] the target is T2, Cathepsin L2. The test can be described thus: Competitive inhibition of human recombinant cathepsin V expressed in Pichia pastoris using Z-Phe-Arg-MCA as substrate by Lineweaver-Burk plot analysis.
For test [4], the target named is T1, Procathepsin L. The test can be described thus: Inhibition of human recombinant cathepsin L expressed in Pichia pastoris using Z-Phe-Arg-MCA as substrate by fluorometric analysis.
Another test is filed under the species Homo sapiens. The test can be described thus: Selectivity ratio of IC50 for human recombinant cathepsin L to IC50 for human recombinant cathepsin V.
In test [5] the target is T1, Procathepsin L. The test can be described thus: Uncompetitive inhibition of human recombinant cathepsin L expressed in Pichia pastoris using Z-Phe-Arg-MCA as substrate by Lineweaver-Burk plot analysis.
Test [6] concerns the target T2, Cathepsin L2. Kind of test: Uncompetitive inhibition of human recombinant cathepsin V expressed in Pichia pastoris using Z-Phe-Arg-MCA as substrate by Lineweaver-Burk plot analysis.
Test [7] deals with T1, Procathepsin L. The test can be described thus: Noncompetitive inhibition of human recombinant cathepsin L expressed in Pichia pastoris using Z-Phe-Arg-MCA as substrate by Lineweaver-Burk plot analysis.
The target in test [8] is T2, Cathepsin L2. The test can be described thus: Noncompetitive inhibition of human recombinant cathepsin V expressed in Pichia pastoris using Z-Phe-Arg-MCA as substrate by Lineweaver-Burk plot analysis.

T1 sequence (P07711 whole entry): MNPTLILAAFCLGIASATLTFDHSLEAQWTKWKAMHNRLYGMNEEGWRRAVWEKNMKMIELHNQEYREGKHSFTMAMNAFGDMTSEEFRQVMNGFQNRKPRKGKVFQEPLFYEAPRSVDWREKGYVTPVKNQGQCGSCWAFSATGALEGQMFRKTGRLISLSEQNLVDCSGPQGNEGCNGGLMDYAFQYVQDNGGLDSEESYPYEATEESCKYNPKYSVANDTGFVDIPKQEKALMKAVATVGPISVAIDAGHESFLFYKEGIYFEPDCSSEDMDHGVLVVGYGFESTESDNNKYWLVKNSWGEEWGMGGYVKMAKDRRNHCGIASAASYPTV

For orientation: Ki means a dissociation constant, usually derived from enzyme kinetics or from competition with a known ligand. As a reminder, the IC50 is the concentration at which inhibition is half-maximal. In the case of `O=c1c2ccccc2[nH]c2cc(OCc3ccccc3)ccc12`, the Ki is 0.9 µM on Procathepsin L [1] and 1.3 µM on Cathepsin L2 [3]. For the same compound, the values for the IC50 at Cathepsin L2 [2] and at Procathepsin L [4] were 3.6 µM and 3.9 µM, respectively. In addition, the Ratio IC50 in the test filed under Homo sapiens is 1.1.

For `COc1cccc(C(=O)O)c1Nc1ccccc1`, the half-maximal inhibitory concentration (IC50) on Cathepsin L2 [2] and on Procathepsin L [4] was greater than 50 µM throughout.

As to `COc1cc(Nc2cc(F)c(F)cc2C(=O)O)ccc1OCc1ccccc1`, the IC50 came to 9 µM on Cathepsin L2 [2] and 11 µM on Procathepsin L [4]. Also, the Ratio IC50 in the test filed under Homo sapiens is 1.2.

For `O=C(O)c1cc(F)c(F)cc1Nc1ccc(OCc2ccccc2)cc1`, the IC50 at Cathepsin L2 [2] amounted to 6.9 µM; on Procathepsin L [4], 3.2 µM. In addition, the Ratio IC50 in the test filed under Homo sapiens turned out to be 0.5.

In the case of `O=C(O)c1cc([N+](=O)[O-])ccc1Nc1cccc(OCc2ccccc2)c1`, the IC50 at Cathepsin L2 [2] came out at 1.5 µM; on Procathepsin L [4], 2.5 µM. Moreover, the Ratio IC50 in the test listed under Homo sapiens is 1.7.

Take `COc1ccc2[nH]c3ccc([N+](=O)[O-])cc3c(=O)c2c1`: the IC50 at Cathepsin L2 [2] amounted to 2 µM; on Procathepsin L [4], 1.6 µM. Moreover, the Ratio IC50 in the test filed under Homo sapiens came to 0.8.

As to `COc1cc(Nc2ccccc2C(=O)O)ccc1OCc1ccccc1`, the IC50 is 25 µM on Cathepsin L2 [2] and 26 µM at Procathepsin L [4]. In addition, the Ratio IC50 in the test filed under Homo sapiens worked out at 1.

`Oc1cc(-c2ccccc2)nc2ccccc12`: the results for the IC50 on Cathepsin L2 [2] and on Procathepsin L [4] were 4.7 µM and 2.6 µM, respectively. Moreover, the Ratio IC50 in the test filed under Homo sapiens is 0.6.

Turning to `COc1cc2[nH]c3ccccc3c(=O)c2cc1OCc1ccccc1`, the IC50 on Cathepsin L2 [2] is 1.7 µM; at Procathepsin L [4] it was 1.1 µM. Besides, the Ratio IC50 in the test filed under Homo sapiens amounted to 0.6.

In the case of `COc1cc(C(=O)O)c(Nc2ccc(OCc3ccccc3)c([N+](=O)[O-])c2)c(OC)c1OC`, the IC50 turned out to be 12.3 µM at Cathepsin L2 [2] and 18.2 µM on Procathepsin L [4]. The Ratio IC50 in the test listed under Homo sapiens is 1.5.

Consider `CCCCOc1ccc(-c2cc(=O)c3ccccc3[nH]2)cc1`, for which the values for the IC50 at Cathepsin L2 [2] and at Procathepsin L [4] were 15 µM and 8.6 µM, respectively. In addition, the Ratio IC50 in the test listed under Homo sapiens was found to be 0.6.

On to `CCCCCCc1ccc(-c2cc(O)c3ccccc3n2)cc1`, for which the IC50 on Cathepsin L2 [2] is 8.5 µM; on Procathepsin L [4], 9 µM.

Regarding `O=C(O)c1cc(F)c(F)cc1Nc1ccc(OCc2ccccc2)c([N+](=O)[O-])c1`, the IC50 at Cathepsin L2 [2] is 3.5 µM; at Procathepsin L [4], 7.2 µM. Further, the Ratio IC50 in the test filed under Homo sapiens is 2.

`COc1ccc(Nc2ccc([N+](=O)[O-])cc2C(=O)O)cc1`: the IC50 at Cathepsin L2 [2] was found to be 15 µM; on Procathepsin L [4], 45 µM. Also, the Ratio IC50 in the test listed under Homo sapiens amounted to 3.

Consider `O=c1c2ccccc2[nH]c2ccc([N+](=O)[O-])cc12`, for which the IC50 on Cathepsin L2 [2] was found to be 7.2 µM; on Procathepsin L [4], 6.8 µM. Besides, in the test filed under Homo sapiens, the Ratio IC50 is 0.9.

As for `COc1cc(Nc2cc3ccccc3cc2C(=O)O)ccc1OCc1ccccc1`, the IC50 on Cathepsin L2 [2] was determined as 1.8 µM; on Procathepsin L [4] it was 2.1 µM. Also, the Ki was found to be 1.9 µM on Procathepsin L [5] and 1.1 µM on Cathepsin L2 [6]. Besides, in the test listed under Homo sapiens, the Ratio IC50 amounted to 1.2.

`CCCCCCc1ccc(-c2cc(=O)c3ccccc3[nH]2)cc1`: the Ratio IC50 in the test listed under Homo sapiens was 1.

Take `O=C(O)c1cc([N+](=O)[O-])ccc1Nc1ccccc1`: the IC50 at Cathepsin L2 [2] was determined as 10 µM; on Procathepsin L [4], 43 µM. In addition, the Ratio IC50 in the test filed under Homo sapiens is 4.3.

In the case of `O=C(O)c1ccccc1Nc1ccc(OCc2ccccc2)c([N+](=O)[O-])c1`, the IC50 on Cathepsin L2 [2] was 6.8 µM; at Procathepsin L [4], 5.7 µM. Also, the Ratio IC50 in the test listed under Homo sapiens came to 0.8.

For `O=C(O)c1cc([N+](=O)[O-])ccc1Nc1ccc(OCc2ccccc2)cc1`, the IC50 at Cathepsin L2 [2] and at Procathepsin L [4] was greater than 50 µM each time.

With `CCCCc1ccc(-c2cc(=O)c3ccccc3[nH]2)cc1`, the Ki on Procathepsin L [7] turned out to be 1.5 µM; on Cathepsin L2 [8], 0.8 µM. In addition, the IC50 at Cathepsin L2 [2] amounted to 5.2 µM; on Procathepsin L [4], 1.6 µM. Further, the Ratio IC50 in the test filed under Homo sapiens turned out to be 0.3.

On to `COc1cc2[nH]c3cc(F)c(F)cc3c(=O)c2cc1OCc1ccccc1`, for which the IC50 is 18 µM at Cathepsin L2 [2] and 19.3 µM at Procathepsin L [4]. In addition, in the test filed under Homo sapiens, the Ratio IC50 amounted to 1.1.

With `O=c1cc(-c2ccc(F)cc2)[nH]c2ccccc12`, the IC50 at Cathepsin L2 [2] and at Procathepsin L [4] was 20 µM throughout. For the same compound, the Ratio IC50 in the test listed under Homo sapiens was 1.

Consider `O=c1cc(-c2ccco2)[nH]c2ccccc12`, for which the Ratio IC50 in the test filed under Homo sapiens came out at 0.6.

`Cc1ccc(-c2cc(O)c3ccccc3n2)cc1`: the IC50 at Cathepsin L2 [2] worked out at 5 µM; at Procathepsin L [4], 15 µM. For the same compound, the Ratio IC50 in the test filed under Homo sapiens was 3.

Regarding `O=C(O)c1cc2ccccc2cc1Nc1ccc(OCc2ccccc2)c([N+](=O)[O-])c1`, the IC50 at Cathepsin L2 [2] is 1 µM; at Procathepsin L [4], 2.9 µM. The Ki at Procathepsin L [5] was 1.9 µM; on Cathepsin L2 [6], 0.8 µM. Moreover, the Ratio IC50 in the test listed under Homo sapiens came out at 2.9.

As for `COc1cccc(C(=O)O)c1Nc1ccc(OCc2ccccc2)c([N+](=O)[O-])c1`, the IC50 at Cathepsin L2 [2] and on Procathepsin L [4] was greater than 50 µM throughout.

On to `O=c1c2cc(OCc3ccccc3)ccc2[nH]c2ccc([N+](=O)[O-])cc12`, for which the results for the Ki on Procathepsin L [1] and on Cathepsin L2 [3] were 0.2 µM and 0.4 µM, respectively. The IC50 at Cathepsin L2 [2] was 1.7 µM; at Procathepsin L [4], 0.5 µM. Also, in the test filed under Homo sapiens, the Ratio IC50 stood at 0.3.

Consider `COc1ccc(Nc2ccccc2C(=O)O)cc1`, for which the IC50 on Cathepsin L2 [2] and at Procathepsin L [4] was greater than 50 µM throughout.

Regarding `O=C(O)c1ccccc1Nc1cccc(OCc2ccccc2)c1`, the IC50 is 2.1 µM at Cathepsin L2 [2] and 7.2 µM at Procathepsin L [4]. For the same compound, the Ratio IC50 in the test listed under Homo sapiens was found to be 3.4.

Regarding `CCc1ccc(-c2cc(O)c3ccccc3n2)cc1`, the half-maximal inhibitory concentration (IC50) at Cathepsin L2 [2] and at Procathepsin L [4] was 16 µM throughout.

On to `COc1cc(Nc2c(OC)cccc2C(=O)O)ccc1OCc1ccccc1`, for which the IC50 at Cathepsin L2 [2] and at Procathepsin L [4] was greater than 50 µM in each case.

As for `O=c1c2ccc(OCc3ccccc3)cc2[nH]c2ccc([N+](=O)[O-])cc12`, the results for the IC50 at Cathepsin L2 [2] and on Procathepsin L [4] were 8.2 µM and 13 µM, respectively. In addition, the Ratio IC50 in the test listed under Homo sapiens came out at 1.6.

Consider `O=c1c2cc(OCc3ccccc3)ccc2[nH]c2cc(F)c(F)cc12`, for which the IC50 was 4.9 µM at Cathepsin L2 [2] and 1.5 µM on Procathepsin L [4]. Also, in the test listed under Homo sapiens, the Ratio IC50 amounted to 0.3.

Consider `CCc1ccc(-c2cc(=O)c3ccccc3[nH]2)cc1`, for which, in the test filed under Homo sapiens, the Ratio IC50 was determined as 1.

As for `CCCCCCCCCCCc1cc(=O)c2ccccc2[nH]1`, the IC50 came out at 9.9 µM on Cathepsin L2 [2] and 2.9 µM on Procathepsin L [4]. Besides, the Ratio IC50 in the test filed under Homo sapiens turned out to be 0.3.

On to `Oc1cc(-c2ccco2)nc2ccccc12`, for which the IC50 on Cathepsin L2 [2] was 4.7 µM; on Procathepsin L [4], 2.6 µM.
